The values that follow are results of earlier work, collected in patent US9226906B2, “Method and nutritional supplement for enhancing weight gain of a mammal” (Supragenix, LLC, priority 2013, dated 2016).

The target of this data set is CB1 (Homo sapiens, UniProt P21554).
CB1, sequence (P21554 whole entry, species assumed): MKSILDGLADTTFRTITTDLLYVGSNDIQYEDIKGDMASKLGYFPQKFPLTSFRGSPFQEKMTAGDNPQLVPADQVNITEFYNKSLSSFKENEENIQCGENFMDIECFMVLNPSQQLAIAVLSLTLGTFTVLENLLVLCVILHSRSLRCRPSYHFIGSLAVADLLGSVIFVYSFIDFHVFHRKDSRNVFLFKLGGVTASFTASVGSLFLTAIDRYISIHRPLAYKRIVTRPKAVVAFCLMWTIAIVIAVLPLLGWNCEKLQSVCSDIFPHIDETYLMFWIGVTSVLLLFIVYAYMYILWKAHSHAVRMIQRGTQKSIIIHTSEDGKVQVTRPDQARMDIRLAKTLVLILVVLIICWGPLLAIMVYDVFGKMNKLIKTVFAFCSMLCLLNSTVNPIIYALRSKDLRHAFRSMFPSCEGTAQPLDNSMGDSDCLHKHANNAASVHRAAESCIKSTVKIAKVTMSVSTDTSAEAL
In the case of `CCC/C=C\CC/C=C/C=C/C(=O)NCC(C)C` [Dodeca-2E,4E,8Z-trienoic acid isobutylamide], the “activating CB1” value is reported as “effective in activating CB1”.
With `C#CC#CCCCCC=CC(=O)NCC(C)C` [Undeca-2-ene-8,10-diynoic acid isobutylamide], the “activating CB1” value was “effective in activating CB1”.
With `C#CC#CCC/C=C/C=C\C(=O)NCC(C)C` [Undeca-2Z,4E-diene-8,10-diynoic acid isobutylamide], the “activating CB1” value was “effective in activating CB1”.
As for `CC#CC#CCCCC/C=C/C(=O)NCC(C)CC` (centres unmarked) [Dodeca-2E-ene-8,10-diynoic acid 2-methylbutylamide], the “activating CB1” value is reported as “effective in activating CB1”.
As to `CC#CC#CCC/C=C\C=C\C(=O)NCC(C)C` [Dodeca-2E,4Z-diene-8,10-diynoic acid isobutylamide], the “activating CB1” value is on record as “effective in activating CB1”.
As to “Dodeca-2E,4E,8Z,10E/Z-tetraenoic acid isobutylamides”, the “activating CB1” value is given as “effective in activating CB1”.
`CCCCCCC/C=C/C=C/C(=O)NCC(C)C` [Dodeca-2E,4E-dienoic acid isobutylamide]: the “activating CB1” value is recorded as “effective in activating CB1”.
On to `C#CC#CC/C=C\CCCCC/C=C/C(=O)NCC(C)C` [Pentadeca-2E,9Z-diene-12,14-diynoic acid isobutylamide], for which the “activating CB1” value is reported as “effective in activating CB1”.
